Laboratory results as given in paper PMC5329164 (Cancer Science, 2017).
≈ marks a conversion by molar mass, not a printed value.

What was measured:
UM‐UC‐14 [FGFR3_S249C] = experiment: In vitro cell growth assay; assay type: cell-based; conditions: Homo sapiens, UMUC14, 120 h, read-out: IC50, anti-proliferative effect
[1] = test system: adriamycin‐resistant UM‐UC‐14 cell line; experiment: In vitro cell growth assay, adriamycin-resistant UM-UC-14
[2] = test system: urothelial cancer harboring FGFR3 gene alternation; conditions: 25 evaluable urothelial cancer patients with FGFR3 gene alternation; cited from earlier work
[3] = cited from earlier work; for T 1/2: clinical information; for hyperphosphatemia: clinical
RT‐112 [FGFR3‐TACC3] = experiment: In vitro cell growth assay; assay type: cell-based; conditions: Homo sapiens, RT-112, 120 h, read-out: IC50, proliferation
[4] = test system: tumors harboring FGFR3‐TACC3 fusion genes; conditions: patients with tumors harboring FGFR3-TACC3 fusion genes; cited from earlier work
[5] = test system: c‐MYC expression in lung cancer cell lines harboring FGFR1 overexpression; conditions: cited from earlier work

COc1cccc2c1C(=O)c1c(O)c3c(c(O)c1C2=O)C[C@@](O)(C(=O)CO)C[C@@H]3O[C@H]1C[C@H](N)[C@H](O)[C@H](C)O1 [Adriamycin]
IC50 (UM‐UC‐14 [FGFR3_S249C]): 6.7 ng/mL (≈ 0.0123 µM) | IC50 ([1]; Homo sapiens, UMUC14, 120 h, read-out: IC50, anti-proliferative effect): 58 ng/mL (≈ 0.107 µM) | fold weaker anti-proliferative effect in resistant vs parental cell line ([1]; adriamycin-resistant UM-UC-14 vs parental UM-UC-14): 8.7 folds

CCN1CCN(c2ccc(Nc3cc(N(C)C(=O)Nc4c(Cl)c(OC)cc(OC)c4Cl)ncn3)cc2)CC1 [BGJ398, 3‐(2,6‐dichloro‐3,5‐dimethoxy‐phenyl)‐1‐{6‐[4‐(4‐ethyl‐piperazin‐1‐yl)‐phenylamino]‐pyrimidin‐4‐yl}‐1‐methyl‐urea]
overall response rate [2]: 36% | T 1/2 [3]: quite large | hyperphosphatemia [3]: commonly observed

Nc1ccn([C@@H]2O[C@H](CO)[C@@H](O)C2(F)F)c(=O)n1 [Gemcitabine]
IC50 (RT‐112 [FGFR3‐TACC3]): 0.95 ng/mL (≈ 0.00361 µM)

COc1cc(OC)cc(N(CCNC(C)C)c2ccc3ncc(-c4cnn(C)c4)nc3c2)c1 [JNJ‐42756493]
partial responses [4]: three out of four partial responses | T 1/2 [3]: quite large | hyperphosphatemia [3]: commonly observed

CCN(CC)CCCCNc1ncc2cc(-c3cc(OC)cc(OC)c3)c(NC(=O)NC(C)(C)C)nc2n1 [PD173074, 1‐tert‐butyl‐3‐[6‐(3,5‐dimethoxy‐phenyl)‐2‐(4‐diethylamino‐butylamino)‐pyrido[2,3‐d]pyrimidin‐7‐yl]‐urea]
c-MYC expression [5]: decreased
